Measured values from US20100056524A1, “Compound” (priority 2008, published 2010).
Structures can show the parent of a compound that is named as a salt. Where two headings read alike, the source gives them in different places.

Columns and labels:
Assay type in all cases: biochemical
p38s MAPK = molecular target: T1, p38s MAPK (Homo sapiens, UniProt O15264); assay: p38s MAPK protein kinase assay; details: for remaining activity at 10 µM: 10 μM compound; for residual kinase activity p38s MAPK: 1 μm compound; for remaining activity at 1 µM: 1 μM compound
T1 construct: All protein kinases were of human origin and encoded full length proteins, unless indicated otherwise; made in house
T1 sequence (O15264 1-365): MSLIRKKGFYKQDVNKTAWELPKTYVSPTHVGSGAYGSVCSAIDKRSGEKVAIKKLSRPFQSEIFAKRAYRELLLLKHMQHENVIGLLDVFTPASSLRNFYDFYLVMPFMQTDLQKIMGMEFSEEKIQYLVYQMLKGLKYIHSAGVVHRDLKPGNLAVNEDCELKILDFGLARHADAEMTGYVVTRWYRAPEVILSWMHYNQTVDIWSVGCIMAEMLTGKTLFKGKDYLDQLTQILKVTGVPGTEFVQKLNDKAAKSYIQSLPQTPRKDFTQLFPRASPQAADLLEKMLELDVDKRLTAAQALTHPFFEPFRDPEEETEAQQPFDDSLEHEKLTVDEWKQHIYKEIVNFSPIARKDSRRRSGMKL
Source text: (§1) All protein kinases were of human origin and encoded full length proteins, unless indicated otherwise. They were either expressed as glutathione S-transferase (GST) fusion proteins in Escherichia Coli or as hexahistidine (His6)-tagged proteins in insect Sf21 cells. GST fusion proteins were purified by affinity chromatography on glutathione-Sepharose, and His6-tagged proteins on nickel/nitriloacetate-agarose. The procedures for expressing some of the protein kinases used herein have been detailed previously.^8,9 The following sections outline the DNA vectors synthesised and the procedures used to express and purifying protein kinases that have not been reported previously.
(§2) All assays (25.5 μl) were carried out at room temperature (21° C.) and were linear with respect to time and enzyme concentration under the conditions used. Assays were performed for 30 min using Multidrop Micro reagent dispensers (Thermo Electron Corporation, Waltham, Mass. 02454, USA) in a 96-well format. The concentration of magnesium acetate in the assays was 10 mM and the [γ-33P] ATP (800 cpm/pmol) was used at 5, 20 or 50 μM as indicated, in order to be at or below the Km for ATP for each enzyme. Protein kinases assayed at 5 μM ATP were: —ERK1, ERK8, PKBα, MARK3, Aurora C. Protein kinases assayed at 20 μM ATP were: —JNK1, PDK1, CHK1, CHK2, CDK2 and Aurora B. Protein kinases assayed at 50 μM ATP were: —MNK2, IKKepsilon and TBK1.
(§3) The assays were initiated with MgATP, stopped by addition of 5 μl of 0.5 M orthophosphoric acid and spotted on to P81 filterplates using a unifilter harvester (PerkinElmer, Boston, Mass. 02118, USA). The IC50 values of inhibitors were determined after carrying out assays at 10 different concentrations of each compound.
(§4) Unless stated otherwise, enzymes were diluted in 50 mM Tris/HCl pH 7.5, 0.1 mM EGTA, 1 mg/ml BSA, 0.1% (v/v) 2-mercaptoethanol and assayed in 50 mM Tris/HCl pH 7.5, 0.1 mM EGTA, 0.1% (v/v) 2-mercaptoethanol.

CHK1 = molecular target: T2, CHK1 (Homo sapiens, UniProt O14757); assay: CHK1 protein kinase assay; details: for remaining activity at 10 µM: 10 μM compound; for residual kinase activity CHK1: 1 μm compound; for remaining activity at 1 µM: 1 μM compound
T2 construct: All protein kinases were of human origin and encoded full length proteins, unless indicated otherwise; made in house
T2 sequence (O14757 1-476): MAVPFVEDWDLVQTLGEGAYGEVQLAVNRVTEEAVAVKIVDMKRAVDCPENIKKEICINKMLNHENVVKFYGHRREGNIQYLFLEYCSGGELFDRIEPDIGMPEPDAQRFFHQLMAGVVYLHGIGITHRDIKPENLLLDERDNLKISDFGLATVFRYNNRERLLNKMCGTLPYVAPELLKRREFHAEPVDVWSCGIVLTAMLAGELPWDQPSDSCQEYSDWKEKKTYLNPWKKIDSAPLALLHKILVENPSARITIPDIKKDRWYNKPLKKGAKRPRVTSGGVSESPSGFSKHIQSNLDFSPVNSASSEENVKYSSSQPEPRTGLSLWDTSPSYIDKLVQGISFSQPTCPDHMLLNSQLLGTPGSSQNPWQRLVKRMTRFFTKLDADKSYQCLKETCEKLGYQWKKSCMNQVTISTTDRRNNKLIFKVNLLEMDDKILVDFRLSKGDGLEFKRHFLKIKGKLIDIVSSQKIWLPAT
Source text: as §1, §2, §3, §4

GSK3b = molecular target: T3, GSK3b (Homo sapiens, UniProt P49841); assay: GSK3b protein kinase assay; details: for remaining activity at 10 µM: 10 μM compound; for residual kinase activity GSK3b: 1 μm compound; for remaining activity at 1 µM: 1 μM compound
T3 construct: All protein kinases were of human origin and encoded full length proteins, unless indicated otherwise; made in house
Source text: as §1, §2, §3, §4

IKKb = molecular target: T4, IKKb (Homo sapiens, UniProt O14920); assay: IKKb protein kinase assay; details: for remaining activity at 10 µM: 10 μM compound; for residual kinase activity IKKb: 1 μm compound; for remaining activity at 1 µM: 1 μM compound
T4 construct: All protein kinases were of human origin and encoded full length proteins, unless indicated otherwise; made in house
T4 sequence (O14920 1-756): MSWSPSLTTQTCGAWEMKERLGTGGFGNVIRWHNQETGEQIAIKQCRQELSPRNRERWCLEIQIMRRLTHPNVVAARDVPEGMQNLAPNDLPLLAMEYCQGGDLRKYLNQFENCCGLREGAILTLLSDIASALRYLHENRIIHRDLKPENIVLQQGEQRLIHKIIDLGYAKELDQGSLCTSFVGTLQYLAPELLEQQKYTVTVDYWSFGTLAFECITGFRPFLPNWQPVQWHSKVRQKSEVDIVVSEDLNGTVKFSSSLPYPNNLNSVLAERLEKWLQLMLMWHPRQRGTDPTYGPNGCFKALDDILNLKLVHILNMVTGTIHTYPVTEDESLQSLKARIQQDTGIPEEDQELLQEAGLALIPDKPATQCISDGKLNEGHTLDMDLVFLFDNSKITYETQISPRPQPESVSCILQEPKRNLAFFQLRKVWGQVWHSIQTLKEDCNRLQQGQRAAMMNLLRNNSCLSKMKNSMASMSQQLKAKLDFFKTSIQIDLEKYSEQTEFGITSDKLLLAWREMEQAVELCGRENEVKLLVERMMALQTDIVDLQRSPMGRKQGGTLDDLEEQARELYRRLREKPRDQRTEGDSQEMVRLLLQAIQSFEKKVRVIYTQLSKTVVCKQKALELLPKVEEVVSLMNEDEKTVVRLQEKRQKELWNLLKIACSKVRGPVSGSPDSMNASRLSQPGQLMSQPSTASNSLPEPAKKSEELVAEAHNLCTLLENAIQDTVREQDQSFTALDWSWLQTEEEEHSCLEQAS
Source text: as §1, §2, §3, §4

Src = molecular target: T5, Src (Homo sapiens, UniProt P12931); assay: Src protein kinase assay; details: for remaining activity at 10 µM: 10 μM compound; for residual kinase activity Src: 1 μm compound; for remaining activity at 1 µM: 1 μM compound
T5 construct: All protein kinases were of human origin and encoded full length proteins, unless indicated otherwise; made in house
Source text: as §1, §2, §3, §4

MST4 = molecular target: T6, MST4 (Homo sapiens, UniProt Q9P289); assay: MST4 protein kinase assay; details: for remaining activity at 10 µM: 10 μM compound; for residual kinase activity MST4: 1 μm compound; for remaining activity at 1 µM: 1 μM compound
T6 construct: All protein kinases were of human origin and encoded full length proteins, unless indicated otherwise; made in house
Source text: as §1, §2, §3, §4

[1] = read-out: residual kinase activity p38s MAPK
[2] = read-out: residual kinase activity CHK1
[3] = read-out: residual kinase activity GSK3b
[4] = read-out: residual kinase activity IKKb
[5] = read-out: residual kinase activity Src
[6] = read-out: residual kinase activity MST4
[7] = p38s MAPK, read-out: residual kinase activity
[8] = CHK1, 20 μM ATP, read-out: residual kinase activity
[9] = GSK3b, read-out: residual kinase activity
[10] = IKKb, read-out: residual kinase activity
[11] = Src, read-out: residual kinase activity
[12] = MST4, read-out: residual kinase activity

T5 sequence (P12931 whole entry): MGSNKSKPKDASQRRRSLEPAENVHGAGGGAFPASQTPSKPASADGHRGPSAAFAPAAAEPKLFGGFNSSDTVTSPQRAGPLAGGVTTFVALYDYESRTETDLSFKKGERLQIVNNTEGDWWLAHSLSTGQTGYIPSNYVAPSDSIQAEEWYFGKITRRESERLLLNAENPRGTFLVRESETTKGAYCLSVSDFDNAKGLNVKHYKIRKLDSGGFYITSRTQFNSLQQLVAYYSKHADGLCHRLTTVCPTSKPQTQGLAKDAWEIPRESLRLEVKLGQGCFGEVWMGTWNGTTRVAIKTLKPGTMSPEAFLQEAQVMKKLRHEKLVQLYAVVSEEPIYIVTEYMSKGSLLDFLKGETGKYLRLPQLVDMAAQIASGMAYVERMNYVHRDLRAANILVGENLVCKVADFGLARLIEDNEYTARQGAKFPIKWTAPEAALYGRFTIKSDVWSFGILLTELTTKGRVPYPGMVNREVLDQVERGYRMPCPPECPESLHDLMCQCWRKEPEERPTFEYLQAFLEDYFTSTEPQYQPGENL
T3 sequence (P49841 whole entry): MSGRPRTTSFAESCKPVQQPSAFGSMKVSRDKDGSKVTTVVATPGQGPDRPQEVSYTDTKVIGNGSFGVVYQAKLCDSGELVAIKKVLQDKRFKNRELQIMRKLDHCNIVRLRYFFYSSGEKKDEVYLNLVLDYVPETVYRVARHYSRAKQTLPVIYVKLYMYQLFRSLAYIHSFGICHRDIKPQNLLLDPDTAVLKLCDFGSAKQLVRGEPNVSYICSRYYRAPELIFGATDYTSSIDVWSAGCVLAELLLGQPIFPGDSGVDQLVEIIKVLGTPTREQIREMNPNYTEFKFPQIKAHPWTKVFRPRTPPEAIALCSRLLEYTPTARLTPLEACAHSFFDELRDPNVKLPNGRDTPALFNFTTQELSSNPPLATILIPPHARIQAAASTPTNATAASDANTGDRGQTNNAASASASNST
T6 sequence (Q9P289 whole entry): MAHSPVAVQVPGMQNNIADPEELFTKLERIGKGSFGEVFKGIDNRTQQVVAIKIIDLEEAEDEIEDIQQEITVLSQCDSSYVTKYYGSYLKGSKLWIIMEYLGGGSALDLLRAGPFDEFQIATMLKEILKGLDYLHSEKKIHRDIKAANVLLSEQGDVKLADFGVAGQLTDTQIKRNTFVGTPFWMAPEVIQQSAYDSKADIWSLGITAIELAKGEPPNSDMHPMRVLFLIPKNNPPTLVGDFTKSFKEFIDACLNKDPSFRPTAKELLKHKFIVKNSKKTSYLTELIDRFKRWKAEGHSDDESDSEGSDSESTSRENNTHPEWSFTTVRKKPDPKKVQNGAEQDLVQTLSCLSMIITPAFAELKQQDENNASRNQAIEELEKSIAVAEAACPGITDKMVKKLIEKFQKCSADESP

## O=C(NCCCNc1nc(Nc2cccc(F)c2)ncc1Br)C1CCC1 [Compound A, cyclobutanecarboxylic acid {3-[5-bromo-2-(3-fluoro-phenylamino)-pyrimidin-4-ylamino]-propyl}-amide, reference compound]
p38s MAPK; [1]
  remaining activity at 10 µM: 15%
p38s MAPK
  residual kinase activity p38s MAPK: 55%
CHK1; [2]
  remaining activity at 10 µM: 0%
CHK1
  residual kinase activity CHK1: 9%
GSK3b; [3]
  remaining activity at 10 µM: 4%
GSK3b
  residual kinase activity GSK3b: 23%
IKKb; [4]
  remaining activity at 10 µM: 66%
IKKb
  residual kinase activity IKKb: 93%
Src; [5]
  remaining activity at 10 µM: 12%
Src
  residual kinase activity Src: 53%
MST4; [6]
  remaining activity at 10 µM: 47%
MST4
  residual kinase activity MST4: 90%

## O=C(NCCCNc1nc(Nc2cccc(F)c2)ncc1C1CC1)C1CCC1 [Example 23, Cyclobutanecarboxylic acid {3-[5-cyclopropyl-2-(3-fluoro-phenylamino)-pyrimidin-4-ylamino]-propyl}-amide]
p38s MAPK; [1]
  remaining activity at 10 µM: 72%
p38s MAPK
  residual kinase activity p38s MAPK: 77%
p38s MAPK; [7]
  remaining activity at 1 µM: 77%
  remaining activity at 10 µM: 72%
CHK1; [2]
  remaining activity at 10 µM: 14%
CHK1
  residual kinase activity CHK1: 51%
CHK1; [8]
  remaining activity at 1 µM: 51%
  remaining activity at 10 µM: 14%
GSK3b; [3]
  remaining activity at 10 µM: 20%
GSK3b
  residual kinase activity GSK3b: 53%
GSK3b; [9]
  remaining activity at 1 µM: 53%
  remaining activity at 10 µM: 20%
IKKb; [4]
  remaining activity at 10 µM: 80%
IKKb
  residual kinase activity IKKb: 75%
IKKb; [10]
  remaining activity at 1 µM: 75%
  remaining activity at 10 µM: 80%
Src; [5]
  remaining activity at 10 µM: 50%
Src
  residual kinase activity Src: 77%
Src; [11]
  remaining activity at 1 µM: 77%
  remaining activity at 10 µM: 50%
MST4; [6]
  remaining activity at 10 µM: 56%
MST4
  residual kinase activity MST4: 94%
MST4; [12]
  remaining activity at 1 µM: 94%
  remaining activity at 10 µM: 56%

## O=C(NCCCNc1nc(Nc2cccc(N3CCCC3=O)c2)ncc1C1CC1)c1cccs1 [Example 47, Thiophene-2-carboxylic acid (3-{5-cyclopropyl-2-[3-(2-oxo-pyrrolidin-1-yl)-phenylamino]-pyrimidin-4-ylamino}-propyl)-amide. Hydrochloride salt]
p38s MAPK; [7]
  remaining activity at 1 µM: 84%
  remaining activity at 10 µM: 84%
CHK1; [8]
  remaining activity at 1 µM: 70%
  remaining activity at 10 µM: 30%
GSK3b; [9]
  remaining activity at 1 µM: 73%
  remaining activity at 10 µM: 31%
IKKb; [10]
  remaining activity at 1 µM: 91%
  remaining activity at 10 µM: 86%
Src; [11]
  remaining activity at 1 µM: 80%
  remaining activity at 10 µM: 67%
MST4; [12]
  remaining activity at 1 µM: 124%
  remaining activity at 10 µM: 111%

## O=C(NCCCNc1nc(Nc2cccnc2)ncc1C1CC1)c1cccs1 [Example 50, Thiophene-2-carboxylic acid {3-[5-cyclopropyl-2-(pyridin-3-ylamino)-pyrimidin-4-ylamino]-propyl}-amide]
p38s MAPK; [7]
  remaining activity at 1 µM: 79%
  remaining activity at 10 µM: 67%
CHK1; [8]
  remaining activity at 1 µM: 65%
  remaining activity at 10 µM: 21%
GSK3b; [9]
  remaining activity at 1 µM: 52%
  remaining activity at 10 µM: 19%
IKKb; [10]
  remaining activity at 1 µM: 90%
  remaining activity at 10 µM: 88%
Src; [11]
  remaining activity at 1 µM: 84%
  remaining activity at 10 µM: 50%
MST4; [12]
  remaining activity at 1 µM: 164%
  remaining activity at 10 µM: 120%
